Patent US12318361B2, “Methods for treating cardiovascular diseases” (Olatec Therapeutics LLC, priority 2017, dated 2025)

Target: T1, NLRP3 inflammasome (association of caspase-1 with NLRP3) (Homo sapiens, UniProt Q96P20)
T1 construct: endogenous in cells; host or cells: human monocyte-derived macrophages (HMDM) from 4 healthy donors
Assay: FRET analysis of NLRP3 inflammasome assembly in human monocyte-derived macrophages after LPS/ATP
Format: cell-based
Conditions: 50 μM, HMDM from 4 donors, P<0.01
Method: Human monocyte-derived macrophages (HMDM) were cultured on glass slides for 5 days with GM-CSF, stimulated for 4 hours with […] LPS and then treated with 5 mM ATP for one hour. Dapansutrile (OLT1177™, 50 μM) was added to the cells either 30 minutes following LPS stimulation or at the same time as ATP.
After washing with PBS, the cells were fixed and permeabilized with 70-30 acetone-methanol as described by Gamboni et al, Physiol Rep., 2 (7), 2014. Briefly, cells were placed in a humidified slide chamber blocked for 1 hour in 10% normal donkey serum (Jackson Immunologicals, Westgrove, PA). After removal of the donkey serum, the primary antibodies to human NLRP3 (Cryo-2, AdipoGen San Diego, CA), human caspase-1 (sc-515, Santa Cruz Biotechnology) or isomolar, species-specific anti-IgG (R&D Systems) were added and kept overnight at 4° C. […] FRET images were acquired using a Marianas Imaging Station using a Zeiss 639 Plan-Apochromat objective (1.4 N/A), a Sutter Xenon light source and a Cooke SensiCam as described by Gamboni et al. The corrected FRET was calculated as FRET=Transfer-Fd/D donor-Fa/Aa acceptor as reported by Berney et al, Biophys J., 84:3992-4010, 2003. […]

T1 sequence (Q96P20 whole entry): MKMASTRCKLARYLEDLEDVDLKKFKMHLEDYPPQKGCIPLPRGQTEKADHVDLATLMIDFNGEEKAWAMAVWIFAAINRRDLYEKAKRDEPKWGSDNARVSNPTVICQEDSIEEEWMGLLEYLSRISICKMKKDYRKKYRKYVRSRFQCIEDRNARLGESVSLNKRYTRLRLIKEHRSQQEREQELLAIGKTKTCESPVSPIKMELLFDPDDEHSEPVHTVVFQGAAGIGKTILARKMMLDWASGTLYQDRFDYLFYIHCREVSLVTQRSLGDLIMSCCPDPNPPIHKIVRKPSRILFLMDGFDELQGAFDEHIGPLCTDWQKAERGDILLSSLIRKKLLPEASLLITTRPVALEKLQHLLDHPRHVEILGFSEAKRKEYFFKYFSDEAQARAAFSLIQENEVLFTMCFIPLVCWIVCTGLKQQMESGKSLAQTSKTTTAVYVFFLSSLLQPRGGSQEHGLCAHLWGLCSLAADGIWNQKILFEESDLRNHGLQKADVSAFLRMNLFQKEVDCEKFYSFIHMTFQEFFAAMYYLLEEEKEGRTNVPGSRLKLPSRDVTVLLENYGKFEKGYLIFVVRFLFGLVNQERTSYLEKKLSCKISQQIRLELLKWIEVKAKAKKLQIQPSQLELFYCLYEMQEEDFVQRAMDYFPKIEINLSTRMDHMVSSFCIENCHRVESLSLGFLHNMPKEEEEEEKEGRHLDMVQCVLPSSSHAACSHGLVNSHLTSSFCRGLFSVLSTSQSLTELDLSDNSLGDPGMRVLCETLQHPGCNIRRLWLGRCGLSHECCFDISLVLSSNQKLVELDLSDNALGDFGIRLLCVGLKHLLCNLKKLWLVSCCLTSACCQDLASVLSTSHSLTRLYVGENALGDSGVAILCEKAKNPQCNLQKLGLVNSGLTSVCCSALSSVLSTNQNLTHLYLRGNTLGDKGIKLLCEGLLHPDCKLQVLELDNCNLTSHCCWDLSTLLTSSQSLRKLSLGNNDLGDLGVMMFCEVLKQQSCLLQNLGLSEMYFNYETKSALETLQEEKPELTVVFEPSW

CS(=O)(=O)CCC#N [OLT1177™, 3-methanesulfonyl-propionitrile]
association of caspase-1 with NLRP3 (FRET intensity): reduced
